Source: patent US20210393621A1, “COMBINATION SEROTONIN SPECIFIC REUPTAKE INHIBITOR AND SEROTONIN 1A RECEPTOR PARTIAL AGONIST FOR REDUCING L-DOPA-INDUCED DYSKINESIA” (The Research Foundation for The State University of new York, priority 2018, published 2021)
Where two headings read alike, the source gives them in different places.

What was measured:
[1] = test system: striatal and raphe tissue monoamines; assay: Experiment 1: HPLC of tissue monoamines and metabolites in striatum and dorsal raphe nucleus; settings: for 5-HIAA / 5-HT / 5-HT Turnover / DA Turnover / DOPAC / DA: 60 min post-LD
Method: Three-weeks post-lesion, animals were divided into 2 equally disabled groups, measured by forepaw adjusting steps (FAS, see below). One group (n=8) began receiving 14 days of daily vehicle (0.9% NaCl+0.1% ascorbic acid) and the other (n=22) received L-DOPA methyl ester (6 mg/kg, s.c.; Sigma)+DL-serine 2-(2,3,4-trihydroxybenzyl) hydrazine hydrochloride (benserazide; 15 mg/kg, s.c.; Sigma), hereafter L-DOPA, dissolved in vehicle at a volume of 1 mg/kg. Treatment persisted for 14 days to produce stable AIMs expression (Putterman et al., 2007; Conti et al., 2014). Thereafter, L-DOPA-treated animals with Axial, Limb, and Orolingual (ALO) AIMs (see description below, FIG. 1A)<30 were excluded from the study and the remaining L-DOPA-treated animals were divided into 3 equally dyskinetic groups. […] Daily injections continued over 23 days, with behavior assayed on Days 15, 22, 29, and 36. On Day 37, animals were killed 60 min post-treatment Left and right dorsal striata and DRN were dissected and flash frozen for HPLC analyses.
High-performance liquid chromatography (HPLC): HPLC, a method for semi-automated catecholamine analysis with coulometric detection, was performed according to prior protocols (Bishop et al., 2009) to determine the tissue levels of monoamines, their metabolites, and monoamine turnover in the striatum and DRN. The limit of detection for DOPAC, DA, 5-hydroxyindoleacetic acid (5-HIAA) and 5-HT was 10^−10 M. Final oxidation current values were plotted on a standard curve from 10^−6 M to 10^−9 M and expressed as pg of monoamine or metabolite per mg of tissue unless otherwise specified.
On the final treatment day, animals were sacrificed 60 min post-LD treatment and left and right striata and dorsal raphe nucleus (DRN) were collected for high performance liquid chromatography (HPLC) analysis. Values (means±standard mean error) are expressed as picograms of monoamine or metabolite per milligram wet tissue weight. Turnover estimates were determined by dividing a subjects metabolite value by its corresponding monoamine. Differences were assessed by a 2×4 (lesion×treatment) ANOVA, followed by Fisher's LSD post-hocs when appropriate. *p<0.01 vs lesion vs intact; +p<0.05 vs all; ^p<0.05 vs VZD (0)+LD (0); #p<0.05 vs VZD (0)+LD (6)

[2] = test system: 6-OHDA-lesioned hemi-parkinsonian rats; assay: Experiment 2: AIMs, LID development in L-DOPA-naive hemi-parkinsonian rats; assay type: in vivo, Sprague-Dawley rats; settings: treatment naive rats; VZD 10 or 20 mg/kg + L-DOPA 6 mg/kg, 3 weeks; vs Vilazodone (0 mg/kg)+L-DOPA (6 mg/kg)
Method: Baseline forepaw adjusting step (FAS) data was collected 3 weeks after sham or […] lesion surgery, but prior to LD exposure. Sham animals received daily VZD (0 mg/kg)+L-DOPA (0 mg/kg) and 6-OHDA-lesioned animals received daily VZD (0, 10 or 20 mg/kg; s.c.)+LD (6 mg/kg; s.c.). All VZD injections were administered 5 min prior to LD. (FIG. 2A) AIMs and (FIG. 2B) FAS were evaluated on days 1, 8, 15, and 22. AIMs values expressed are the median sum of axial, limb, and orolingual (ALO) behaviors. ALO AIMs were evaluated every 10 min for 3 h post-LD administration. Values are expressed as medians [±median absolute difference (M.A.D.)]. FAS were evaluated 60 min post LD and are expressed as the mean overall steps […] to lesion multiplied by 100.
After recovery, FAS established baseline motor disability. 6-OHDA-lesioned animals were divided into 3 equally disabled groups. […] AIMs ([…]) and FAS (FIG. 2B) were measured on Days 1, 8, 15, and 22 of treatment.
Beginning 10 min post-treatment, a trained and blinded observer assigned a severity score (0-4) to each of the ALO AIMs based on 1 min ratings every 10 min for 3 h: 0, not present; 1, present from 1-29 s; 2, present 30-59 s; 3, present all 60 s, but interruptible by a cylinder tap; 4, present 60 s and not interruptible by a cylinder tap.

5-HT1A receptor = biological target: T1, 5-HT1A receptor (Homo sapiens, UniProt P08908); set-up: expressed in transfected cells; host or cells: SF9 cells; settings: 5-HT1A receptor expressed in SF9 cells; cited from earlier work
T1 sequence (P08908 1-422): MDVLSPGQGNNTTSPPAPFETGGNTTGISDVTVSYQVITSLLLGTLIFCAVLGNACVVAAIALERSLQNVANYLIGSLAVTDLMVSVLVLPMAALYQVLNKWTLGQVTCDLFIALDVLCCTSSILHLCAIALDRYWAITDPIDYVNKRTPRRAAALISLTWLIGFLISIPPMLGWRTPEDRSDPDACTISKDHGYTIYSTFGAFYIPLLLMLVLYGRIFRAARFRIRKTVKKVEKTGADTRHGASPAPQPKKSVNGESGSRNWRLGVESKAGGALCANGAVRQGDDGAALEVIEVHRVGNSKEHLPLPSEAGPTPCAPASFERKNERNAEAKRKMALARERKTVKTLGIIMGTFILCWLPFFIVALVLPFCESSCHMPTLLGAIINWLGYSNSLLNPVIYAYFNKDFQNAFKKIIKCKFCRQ

[3] = test system: 6-OHDA-lesioned hemi-parkinsonian rats; assay: Experiment 1: forepaw adjusting steps (FAS); assay type: in vivo, Sprague-Dawley rats
Source text: (§1) Conti et al., 2014). […] Forepaw adjusting steps (FAS): The FAS test is a measure of forelimb akinesia performed according to previous protocols (Bishop et al., 2012; Chang et al., 1999). Data are presented as mean percent intact stepping where the sum of the total steps with the lesioned forepaw was divided by the total steps with the unlesioned forepaw multiplied by 100. Lower percent intact scores indicate greater forelimb akinesia. Prior to baseline, rats received 2 acclimation periods. On-treatment FAS was performed 60 min post-L-DOPA.

[4] = test system: 6-OHDA-lesioned hemi-parkinsonian rats; assay: Experiment 2: forepaw adjusting steps (FAS); assay type: in vivo, Sprague-Dawley rats; settings: Vilazodone 10 mg/kg + L-DOPA 6 mg/kg; by Day 15
Method: as §1, with “[…].). All VZD injections were administered 5 min prior to LD. […] AIMs values expressed are the median sum of axial, limb, and orolingual (ALO) behaviors. […] Values are expressed as medians [±median absolute difference (M.A.D.)].” for “Conti et al., 2014).”

[5] = test system: extracellular 5-HT, dopamine and norepinephrine; settings: cited from earlier work; for maximal increase of extracellular 5-HT: rats, acute systemic injection, measured 3 h after injection
[6] = biological target: norepinephrine transporter (NET) (Homo sapiens, UniProt P23975); settings: read-out: Ki for NET (norepinephrine reuptake site); cited from earlier work
[7] = Dorsal Raphe Nucleus, VZD(10) + LD(6) mg/kg
[8] = Dorsal Raphe Nucleus, VZD(20) + LD(6) mg/kg
[9] = Striatum, Intact, VZD(10) + LD(6) mg/kg
[10] = Striatum, Intact, VZD(20) + LD(6) mg/kg
[11] = Striatum, Lesion, VZD(10) + LD(6) mg/kg
[12] = Striatum, Lesion, VZD(20) + LD(6) mg/kg

norepinephrine transporter (NET), sequence (P23975 whole entry): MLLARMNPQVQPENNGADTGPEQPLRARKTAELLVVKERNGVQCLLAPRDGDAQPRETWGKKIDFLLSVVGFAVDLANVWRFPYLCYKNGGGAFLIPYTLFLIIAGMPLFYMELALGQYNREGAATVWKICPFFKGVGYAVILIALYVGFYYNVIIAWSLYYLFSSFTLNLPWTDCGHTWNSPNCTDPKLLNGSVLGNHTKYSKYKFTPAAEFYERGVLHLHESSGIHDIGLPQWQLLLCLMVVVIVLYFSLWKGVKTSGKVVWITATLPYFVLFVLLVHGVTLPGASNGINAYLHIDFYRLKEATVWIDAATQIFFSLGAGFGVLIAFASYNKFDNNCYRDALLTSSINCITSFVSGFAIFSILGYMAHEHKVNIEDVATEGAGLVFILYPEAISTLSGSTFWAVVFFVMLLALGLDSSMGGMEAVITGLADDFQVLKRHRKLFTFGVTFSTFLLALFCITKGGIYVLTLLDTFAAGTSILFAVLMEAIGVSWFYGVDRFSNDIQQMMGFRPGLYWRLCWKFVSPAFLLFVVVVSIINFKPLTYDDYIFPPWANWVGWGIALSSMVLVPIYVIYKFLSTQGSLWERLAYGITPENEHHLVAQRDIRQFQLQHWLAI

Compound: Cl.N#Cc1ccc2[nH]cc(CCCCN3CCN(c4ccc5oc(C(N)=O)cc5c4)CC3)c2c1 [Vilazodone, 5-{4-[4-(5-cyano-3-indolyl)-butyl]-1-piperazinyl}-benzofuran-2-carboxamide hydrochloride]
- 5-HIAA [1, 7]: 2541 ± 187^ picograms per milligram wet ti
- 5-HT [1, 7]: 7013 ± 462^^ picograms per milligram wet ti
- 5-HT Turnover [1, 7]: 0.37 ± 0.02
- DA Turnover [1, 7]: 7.60 ± 0.78
- DOPAC [1, 7]: 1175 ± 234 picograms per milligram wet ti
- 5-HIAA [1, 8]: 1985 ± 345^ picograms per milligram wet ti
- 5-HT [1, 8]: 5946 ± 776^ picograms per milligram wet ti
- 5-HT Turnover [1, 8]: 0.32 ± 0.03
- DA [1, 8]: 128 ± 15.2 picograms per milligram wet ti
- DA Turnover [1, 8]: 7.19 ± 1.12
- DOPAC [1, 8]: 909 ± 186 picograms per milligram wet ti
- 5-HIAA [1, 9]: 470 ± 35.5 picograms per milligram wet ti
- 5-HT [1, 9]: 326 ± 24.3 picograms per milligram wet ti
- 5-HT Turnover [1, 9]: 1.45 ± 0.04
- DA [1, 9]: 4827 ± 222 picograms per milligram wet ti
- DA Turnover [1, 9]: 0.85 ± 0.05
- DOPAC [1, 9]: 4138 ± 332^ picograms per milligram wet ti
- 5-HIAA [1, 10]: 422 ± 38.6 picograms per milligram wet ti
- 5-HT [1, 10]: 305 ± 33.5 picograms per milligram wet ti
- 5-HT Turnover [1, 10]: 1.41 ± 0.07
- DA [1, 10]: 4560 ± 337 picograms per milligram wet ti
- DA Turnover [1, 10]: 0.84 ± 0.03
- DOPAC [1, 10]: 3839 ± 306 picograms per milligram wet ti
- 5-HIAA [1, 11]: 842 ± 78.8 picograms per milligram wet ti
- 5-HT [1, 11]: 261 ± 30.7 picograms per milligram wet ti
- 5-HT Turnover [1, 11]: 3.38 ± 0.31
- DA [1, 11]: 128 ± 14.2 picograms per milligram wet ti
- DA Turnover [1, 11]: 1.56 ± 0.18
- 5-HIAA [1, 12]: 596 ± 55.1+ picograms per milligram wet ti
- 5-HT [1, 12]: 223 ± 23.8 picograms per milligram wet ti
- 5-HT Turnover [1, 12]: 2.84 ± 0.33^
- DA [1, 12]: 128 ± 26.2 picograms per milligram wet ti
- DA Turnover [1, 12]: 1.50 ± 0.15
- DOPAC [1, 12]: 190 ± 44.6 picograms per milligram wet ti
- DRN 5-HT ([1]; Vilazodone 10 mg/kg + L-DOPA): significantly increased DRN 5-HT
- striatal 5-HT Turnover ([1]; Vilazodone 20 mg/kg, compared to Vilazodone (0 mg/kg)+L-DOPA (0 mg/kg)): reduced 5-HT Turnover
- striatal 5-HIAA (printed 5-HIM) ([1]; Vilazodone 20 mg/kg, compared to all other treatments): attenuated 5-HIM
- DRN DA Turnover ([1]; Vilazodone 10 or 20 mg/kg + L-DOPA): attenuated
- DA in the lesioned striatum ([1]; both doses (10, 20 mg/kg) + L-DOPA vs groups receiving Vilazodone vehicle): significantly increased DA
- DRN 5-HT Turnover ([1]; both doses of Vilazodone + L-DOPA): attenuated 5-HT Turnover
- ALO AIMs, development of LID [2]: significantly attenuated the development of LID
- increase of [35S]GTPγS binding compared to vehicle (5-HT1A receptor): fourfold
- FAS motor performance versus baseline ([3]; L-DOPA-primed rats, VZD 0, 10 or 20 mg/kg + L-DOPA 6 mg/kg, 60 min post-L-DOPA): improvements in rats treated with Vilazodone emerged 7 days later
- FAS stepping versus Vilazodone (0 mg/kg)+L-DOPA (6 mg/kg) ([3]; VZD 20 mg/kg, Day 29, effect transient): depressed stepping
- FAS, pro-motor effects versus Vilazodone (0)+L-DOPA (6 mg/kg) [4]: significantly enhanced the pro-motor effects of L-DOPA
- maximal increase of extracellular 5-HT ([5]; frontal cortex): 527%
- extracellular dopamine and norepinephrine ([5]; rat brain, vilazodone 1 and 10 mg/kg): caused no change
- maximal increase of extracellular 5-HT ([5]; ventral hippocampus): 558%
- Ki [6]: 56 nM
